Measured values as given in US20060069132A1, “Azolecarboxamide herbicides” (priority 2004, published 2006).

Legend:
[1] = system: barnyardgrass; test: Test B pre-/postemergence herbicide test; type: in vivo, Echinochloa crus-galli; settings: for Barnyardgrass plant response rating: postemergence, scale 0 (no effect) to 100 (complete control)
Outline: (§1)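 Species tested were Echinochloa crus-galli, Ipomoea coccinea, Xanthium strumarium and Oryza sativa, treated both before emergence and at the 1- to 4-leaf stage; rice and barnyardgrass were also tested under flooding at 2 leaves. Greenhouse incubation lasted 13–15 days before visual 0–100 scoring.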

[2] = system: Surinam grass; test: Test B pre-/postemergence herbicide test; type: in vivo, Urochloa decumbens; settings: for Surinam Grass plant response rating: postemergence, scale 0 (no effect) to 100 (complete control)
Outline: (§2)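 Greenhouse pot assay with simultaneous preemergence (treated seed) and postemergence (2–18 cm seedlings) applications of surfactant-containing, non-phytotoxic solvent formulations. Response scored visually 13–15 days later on a 0–100 scale, 100 meaning complete control.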

[3] = system: cocklebur; test: Test B pre-/postemergence herbicide test; type: in vivo, Xanthium strumarium; settings: for Cocklebur plant response rating: postemergence, scale 0 (no effect) to 100 (complete control)
Outline: as §1

[4] = system: corn; test: Test B pre-/postemergence herbicide test; type: in vivo, Zea mays; settings: for Corn plant response rating: postemergence, scale 0 (no effect) to 100 (complete control)
Outline: as §2

[5] = system: large crabgrass; test: Test B pre-/postemergence herbicide test; type: in vivo, Digitaria sanguinalis; settings: for Crabgrass, Large plant response rating: postemergence, scale 0 (no effect) to 100 (complete control)
Outline: as §2

[6] = system: giant foxtail; test: Test B pre-/postemergence herbicide test; type: in vivo, Setaria faberi; settings: for Foxtail, Giant plant response rating: postemergence, scale 0 (no effect) to 100 (complete control)
Outline: as §2

[7] = system: lambsquarters; test: Test B pre-/postemergence herbicide test; type: in vivo, Chenopodium album; settings: for Lambsquarters plant response rating: postemergence, visual rating, scale 0 (no effect) to 100 (complete control)
Outline: as §2

[8] = system: morningglory; test: Test B pre-/postemergence herbicide test; type: in vivo, Ipomoea coccinea; settings: for Morningglory plant response rating: postemergence, scale 0 (no effect) to 100 (complete control)
Outline: as §1

[9] = system: pigweed; test: Test B pre-/postemergence herbicide test; type: in vivo, Amaranthus retroflexus; settings: for Pigweed plant response rating: postemergence, scale 0 (no effect) to 100 (complete control)
Outline: as §2

[10] = system: rice; test: Test B pre-/postemergence herbicide test; type: in vivo, Oryza sativa; settings: 0 = no effect, 100 = complete control, preemergence
Outline: as §1

[11] = system: velvetleaf; test: Test B pre-/postemergence herbicide test; type: in vivo, Abutilon theophrasti; settings: for Velvetleaf plant response rating: postemergence, scale 0 (no effect) to 100 (complete control)
Outline: as §2

[12] = system: blackgrass; test: Test B postemergence herbicide test; type: in vivo, Alopecurus myosuroides; settings: postemergence, visual rating, scale 0 (no effect) to 100 (complete control)
Outline: (§3)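 Plants grow to 1- to 4-leaf stage (2–18 cm) for postemergence spraying, or to 2-leaf stage for the paddy test. Formulated compound is applied. Greenhouse holding lasts 13–15 days. Response is scored visually relative to controls, 0 no effect to 100 complete control; a dash means no result.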

[13] = system: wheat; test: Test B postemergence herbicide test; type: in vivo, Triticum aestivum; parameters: key to Wheat plant response rating: 0 = no effect, 100 = complete control; settings: postemergence, visual rating, scale 0 (no effect) to 100 (complete control)
Outline: (§4)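 After treating 2-leaf paddy plants or 2–18 cm postemergence plants (1 to 4 leaves) with formulated chemical, researchers kept them in a greenhouse for 13–15 days. Effects were judged visually versus controls: 0 indicates none, 100 total control.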

[14] = system: wild oat; test: Test B postemergence herbicide test; type: in vivo, Avena fatua; settings: postemergence, visual rating, scale 0 (no effect) to 100 (complete control)
Outline: as §4

[15] = system: rice; test: Test B flooded paddy test; type: in vivo, Oryza sativa; settings: 1000 g ai/ha, visual rating, scale 0 to 100 (0 no effect, 100 complete control), 13 to 15 days
Outline: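 Greenhouse test; postemergence application to plants at 1–4 leaves (2–18 cm); paddy species at 2 leaves; evaluated visually vs controls at 13–15 days; scale 0–100 (100 = complete control).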

[16] = system: small flower umbrella sedge; test: Test B flooded paddy test; type: in vivo, Cyperus difformis; settings: 1000 g ai/ha, visual rating, scale 0 to 100 (0 no effect, 100 complete control), 13 to 15 days
Outline: as §3

[17] = system: ducksalad; test: Test B flooded paddy test; type: in vivo, Heteranthera limosa; settings: 1000 g ai/ha, visual rating, scale 0 to 100 (0 no effect, 100 complete control), 13 to 15 days
Outline: as §3

[18] = system: barnyardgrass; test: Test B flooded paddy test; type: in vivo, Echinochloa crus-galli; settings: 1000 g ai/ha, visual rating, scale 0 to 100 (0 no effect, 100 complete control), 13 to 15 days
Outline: as §3

[19] = system: rice; test: Test C flooded paddy test; type: in vivo, Oryza sativa
Outline: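 Plants were grown to the 1- to 4-leaf stage (2–18 cm) and then treated postemergence, or grown to the 2-leaf stage for the flooded paddy test. They were held in a greenhouse for 12 to 14 days and then scored by eye against controls, where 0 is no effect and 100 is complete control.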

[20] = system: smallflower umbrella sedge; test: Test C flooded paddy test; type: in vivo, Cyperus difformis
[21] = system: ducksalad; test: Test C flooded paddy test; type: in vivo, Heteranthera limosa
[22] = system: barnyardgrass; test: Test C flooded paddy test; type: in vivo, Echinochloa crus-galli
Outline: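 Weeds and wheat were sprayed after emergence, at a height of 2 to 18 cm (1–4 leaves), and paddy barnyardgrass was flooded and treated at two leaves. Assessment took place 12–14 days later in the greenhouse on a 0-to-100 visual control scale. A dash means no result was obtained.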

[23] = 125 g ai/ha, 0 = no effect, 100 = complete control, preemergence
[24] = 500 g ai/ha, visual rating, 0 = no effect, 100 = complete control, preemergence
[25] = 62 g ai/ha, scale 0 to 100 (0 no effect, 100 complete control)
[26] = 125 g ai/ha, scale 0 to 100 (0 no effect, 100 complete control)
[27] = 250 g ai/ha, scale of 0 to 100, 0 is no effect, 100 is complete control
[28] = 500 g ai/ha, visual rating after 12 to 14 days, scale 0 to 100 (0 no effect, 100 complete control)

For `CCc1nc(C(C)(C)C)sc1C(=O)Nc1cc(C(=O)N(C)C)ccc1F` [Compound 225], the “Barnyardgrass plant response rating (0 to 100 scale)” value [1, 23] was 60, the “Plant response rating, Barnyardgrass” value [1, 24] was 90 and the “Barnyardgrass plant response rating” value ([1]; 125 g ai/ha, visual rating) was 10. For the same compound, the “Barnyardgrass plant response rating” value ([1]; 500 g ai/ha, visual rating) was 30, the “Surinam Grass plant response rating (0 to 100 scale)” value [2, 23] was 20 and the “Plant response rating, Surinam Grass” value [2, 24] was 90. The “Surinam Grass plant response rating” value ([2]; 125 g ai/ha, visual rating) was 10, the “Surinam Grass plant response rating” value ([2]; 500 g ai/ha, visual rating) was 20 and the “Cocklebur plant response rating (0 to 100 scale)” value [3, 23] was 0. For the same compound, the “Plant response rating, Cocklebur” value [3, 24] was 40, the “Cocklebur plant response rating” value ([3]; 125 g ai/ha, visual rating) was 20 and the “Cocklebur plant response rating” value ([3]; 500 g ai/ha, visual rating) was 20. For the same compound, the “Corn plant response rating (0 to 100 scale)” value [4, 23] was 30, the “Plant response rating, Corn” value [4, 24] was 70 and the “Corn plant response rating” value ([4]; 125 g ai/ha, visual rating) was 10. The “Corn plant response rating” value ([4]; 500 g ai/ha, visual rating) was 20, the “Crabgrass, Large plant response rating (0 to 100 scale)” value [5, 23] was 10 and the “Plant response rating, Crabgrass, Large” value [5, 24] was 100. The “Crabgrass, Large plant response rating” value ([5]; 125 g ai/ha, visual rating) was 10, the “Crabgrass, Large plant response rating” value ([5]; 500 g ai/ha, visual rating) was 20 and the “Foxtail, Giant plant response rating (0 to 100 scale)” value [6, 23] was 60. The “Plant response rating, Foxtail, Giant” value [6, 24] was 100, the “Foxtail, Giant plant response rating” value ([6]; 125 g ai/ha, visual rating) was 10 and the “Foxtail, Giant plant response rating” value ([6]; 500 g ai/ha, visual rating) was 20. The “Lambsquarters plant response rating (0 to 100 scale)” value [7, 23] was 80, the “Lambsquarters plant response rating” value ([7]; 125 g ai/ha) was 50 and the “Lambsquarters plant response rating” value ([7]; 500 g ai/ha) was 70. The “Morningglory plant response rating (0 to 100 scale)” value [8, 23] was 0, the “Plant response rating, Morningglory” value [8, 24] was 10 and the “Morningglory plant response rating” value ([8]; 125 g ai/ha, visual rating) was 10. For the same compound, the “Morningglory plant response rating” value ([8]; 500 g ai/ha, visual rating) was 40, the “Pigweed plant response rating (0 to 100 scale)” value [9, 23] was 70 and the “Plant response rating, Pigweed” value [9, 24] was 100. The “Pigweed plant response rating” value ([9]; 125 g ai/ha, visual rating) was 40, the “Pigweed plant response rating” value ([9]; 500 g ai/ha, visual rating) was 70 and the “Rice plant response rating (0 to 100 scale)” value ([10]; 125 g ai/ha) was 60. The “Plant response rating, Rice” value ([10]; 500 g ai/ha, visual rating) was 90, the “Velvetleaf plant response rating (0 to 100 scale)” value [11, 23] was 30 and the “Plant response rating, Velvetleaf” value [11, 24] was 100. For the same compound, the “Velvetleaf plant response rating” value ([11]; 125 g ai/ha, visual rating) was 30, the “Velvetleaf plant response rating” value ([11]; 500 g ai/ha, visual rating) was 40 and the “Blackgrass plant response rating” value ([12]; 125 g ai/ha) was 20. The “Blackgrass plant response rating” value ([12]; 500 g ai/ha) was 40, the “Wheat plant response rating” value ([13]; 125 g ai/ha) was 10 and the “Wheat plant response rating” value ([13]; 500 g ai/ha) was 30. The “Oat, Wild plant response rating” value ([14]; 125 g ai/ha) was 0, the “Oat, Wild plant response rating” value ([14]; 500 g ai/ha) was 30 and the “Rice plant response rating” value [15] was 90. For the same compound, the “Sedge, Umbrella plant response rating” value [16] was 90, the “Ducksalad plant response rating” value [17] was 90 and the “Barnyardgrass plant response rating” value [18] was 90. The “Rice plant response rating” value [19, 25] was 55, the “Rice plant response rating” value [19, 26] was 70 and the “Rice plant response rating” value [19, 27] was 75. The “Plant response rating, Rice” value [19, 28] was 80, the “Sedge, Umbrella plant response rating” value [20, 25] was 65 and the “Sedge, Umbrella plant response rating” value [20, 26] was 75. The “Sedge, Umbrella plant response rating” value [20, 27] was 75, the “Plant response rating, Sedge, Umbrella” value [20, 28] was 80 and the “Ducksalad plant response rating” value [21, 25] was 10. For the same compound, the “Ducksalad plant response rating” value [21, 26] was 75, the “Ducksalad plant response rating” value [21, 27] was 85 and the “Plant response rating, Ducksalad” value [21, 28] was 85. For the same compound, the “Barnyardgrass plant response rating” value [22, 25] was 35, the “Barnyardgrass plant response rating” value [22, 26] was 60 and the “Barnyardgrass plant response rating” value [22, 27] was 80. The “Plant response rating, Barnyardgrass” value [22, 28] was 90.
